The structures appear in SMILES notation.

The assay addresses T1, Protein RecA (Escherichia coli K-12) (UniProt P0A7G6).
T1 sequence (whole entry): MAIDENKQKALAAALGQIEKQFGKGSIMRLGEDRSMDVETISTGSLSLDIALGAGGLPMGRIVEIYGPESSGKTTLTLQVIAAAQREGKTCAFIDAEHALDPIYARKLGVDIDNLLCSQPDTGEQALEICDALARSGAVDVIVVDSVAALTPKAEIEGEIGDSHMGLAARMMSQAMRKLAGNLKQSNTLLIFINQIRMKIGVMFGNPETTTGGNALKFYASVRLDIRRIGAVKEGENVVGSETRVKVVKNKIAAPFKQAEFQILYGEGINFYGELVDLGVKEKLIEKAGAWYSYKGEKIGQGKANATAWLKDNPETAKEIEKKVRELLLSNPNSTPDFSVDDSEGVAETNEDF
Description: In vitro apparent inhibition constant against Escherichia coli RecA protein.

In the case of `O=P(O)(O)OP(=O)(O)OC[C@H]1O[C@@H](n2cnc3c(Nc4cccc5ccccc45)ncnc32)[C@H](O)[C@@H]1O`, the Kic is 46 µM.

The values above are taken from ChEMBL document CHEMBL1141153, “A molecular target for suppression of the evolution of antibiotic resistance: inhibition of the Escherichia coli RecA protein by N(6)-(1-naphthyl)-ADP” (J Med Chem, 2005).
